Reference: US20220220041A1, “USE OF UREA AS AN ANTIMICROBIAL ADDITIVE IN AN AQUEOUS SUSPENSION” (Omya International AG, priority 2019, published 2022)

Assays:
[1] = tested on: total viable bacteria, not inoculated; assay: Example 2 preservation efficacy: H60 slurry with 61 wt.-% urea solution, control samples not inoculated, TVC; type: cell-based; conditions: inoculum none, 30° C.
Method: (§1) All quoted bacterial counts (Total viable counts (TVC) values), unless otherwise indicated, are given in cfu/ml and determined after at least 2 days following plate-out and incubation at 30° C. and in accordance with the counting method described in “Bestimmung von aerobe mesophilen Keimen”, Schweizerisches Lebensmittelbuch, chapter 56, section 7.01, edition of 1985, revised version of 1988.
(§2) Unless otherwise stated, per tryptic soy agar plate (TSA, prepared using BD 236950) 0.1 ml of a solution or suspension is plated. Counts from 10000 cfu/ml to 99999 cfu/ml are reported as >1E4 cfu/ml. Counts from 100000 cfu/ml to 999999 cfu/ml are reported as >1E5 cfu/ml. Counts above 1000000 cfu/ml are reported as >1E6 cfu/ml.
(§3) 50 g sterile slurry H60 with a solid content of 76.5 wt.-%, based on the total weight of the H60 slurry is supplemented with different amounts of 61 wt.-% urea solution or water. The samples are then inoculated with 1 ml non-sterile calcium carbonate slurry (H60), 1 ml non-sterile calcium carbonate slurry (H90), 0.02 ml overnight culture of Escherichia coli (DSMZ 46295) and 0.02 ml overnight culture of Pseudomonas putida. The control samples are not inoculated. Samples are incubated at 30° C. and the TVC and pH are determined at various time points (0 day, 1 day, 4, days, 8 days, 9 days and/or 13 days).

[2] = Example 5: addition of dry urea to H60 slurry, viscosity and stability of the product; type: physicochemical; conditions: 2.68 wt.-% urea and 73 wt.-% calcium carbonate
Method: The Brookfield viscosity is measured by a Brookfield DV-III Ultra viscometer at 20° C.±3° C. at 100 rpm using an LV-3 spindle and is specified in mPa·s. Once the spindle has been inserted into the sample, the measurement is started with a constant rotating speed of 100 rpm.
1 kg calcium carbonate slurry (H60) with a solid content of 75 wt.-%, based on the total weight of the H60 slurry is stirred at approximately 500 rotations per minute (rpm) and 27.5 g dry urea is added slowly during agitation, leading to 2.68 wt.-% urea and 73 wt.-% calcium carbonate, based on the total weight of the obtained slurry. The blend is further mixed for 30 minutes at slow speed (<500 rpm).

[3] = tested on: Escherichia coli (DSMZ 46295); assay: Example 3 preservation efficacy: H60 slurry with industrial grade urea solution, E. coli inoculum, TVC; type: cell-based; conditions: industrial grade urea 5.5%, calcium carbonate 69%, water 25.5% w/w, 30° C.
Method: as §1, §2
(§4) For the preparation of inoculum with a single bacterial species (for example Escherichia coli (DSMZ 46295) or Pseudomonas putida), bacteria are spread onto Tryptic soy broth agar (BD, 236950) by dilution streaking followed by incubation at 30° C. for at least 24 h until colonies appear. Overnight cultures are generated by inoculation of 3 ml Tryptic soy broth (Fluka 22092) with a single colony followed incubation with agitation at […] at 30° C. for 24 h.
(§5) 50 g sterile calcium carbonate slurry (H60) with a solid content of 77.3 wt.-%, based on the total weight of the H60 slurry is supplemented with industrial grade 50% (w/w) urea solution (Yara Canda Inc.) or water to different final concentrations. The industrial grade contained natural resident (i.e. bacteria in a non-growing state) bacteria. The bacterial of the industrial urea burden is 5 cfu/3 ml as determined by TVC. The species are identified by characterizing the grown colonies from the TVC by 16 S RNA sequencing, known to the person skilled in the art.
(§6) The samples are further artificially inoculated with 1 ml non-sterile calcium carbonate slurry (H60), 1 ml non-sterile calcium carbonate slurry (H90), 0.02 ml overnight culture of Escherichia coli (DSMZ 46295) and 0.02 ml overnight culture Pseudomonas putida. The control sample are not inoculated. […]

[4] = tested on: non-sterile calcium carbonate slurry (H90), environmental bacteria; assay: Example 1 preservation efficacy: sterile H90 slurry with dry urea, up to three inoculations with non-sterile H90 slurry, TVC; type: cell-based; conditions: for TVC cfu/ml 2nd Inoculation / TVC cfu/ml 3rd Inoculation / TVC cfu/ml 1st Inoculation: calcium carbonate 75%, water 25% w/w, H90 slurry; for TVC cfu/ml 1st Inoculation: 3 days at 30° C. after inoculation
Method: as §1, §2
(§7) Non-sterile slurries (H60 or H90) contain contamination with environmental bacteria at a TVC>100000 cfu/ml. The contamination originates spontaneously and a bacterial burden of at least>100000 cfu/ml is confirmed prior use as inoculum by TVC. The following bacterial species are known to occur, as identified by 16S RNA sequencing or MALDI-TOF-MS analysis: Rhizobium radiobacter, Brevundimonas intermedia, Brevundimonas diminiuta, Sphingomonas sp., Pseudomonas stutzeri, Pseudomonas sp., Comomonas aquatic.
50 g sterile slurry H90 with a solid content of 75 wt.-%, based on the total weight of the H90 slurry is supplemented with different concentrations of dry urea. The samples are then stored for 3 days at 30° C. After the storage, the samples are inoculated with 1 ml non-sterile calcium carbonate slurry (H90), incubated for 3 days at 30° C. and the TVC is determined. Samples are further inoculated with 1 ml non-sterile calcium carbonate slurry (H90). Up to three inoculations are performed.

[5] = tested on: non-sterile calcium carbonate slurry (H60), environmental bacteria; assay: Example 3 preservation efficacy: H60 slurry with industrial grade urea solution, non-sterile H60 inoculum, TVC; type: cell-based; conditions: industrial grade urea 5.5%, calcium carbonate 69%, water 25.5% w/w, 30° C.
Method: as §1, §2, §7, §5, §6

Pseudomonas putida = assay: Example 2 preservation efficacy: H60 slurry with 61 wt.-% urea solution, P. putida inoculum, TVC; type: cell-based; conditions: 30° C.
Method: as §1, §2, §4, §3

[6] = Table 2, urea 2.75%, calcium carbonate 73.1%, water 24.15% w/w
[7] = Table 2, urea 7.6%, calcium carbonate 67.1%, water 25.3% w/w
[8] = Table 3, urea 0.65%, calcium carbonate 75.7%, water 23.65% w/w
[9] = Table 3, urea 1.28%, calcium carbonate 74.9%, water 23.82% w/w
[10] = Table 3, urea 2.75%, calcium carbonate 73.1%, water 24.15% w/w

## NC(N)=O [urea]
[1]; [6]
  TVC cfu/ml Day 4: <100 cfu/ml
  TVC cfu/ml Day 8: <100 cfu/ml
  TVC cfu/ml Day 13: <100 cfu/ml
[1]; Table 2, urea 2.75%, calcium carbonate 73.1%, water 24.15% w/w, detection limit 100 cfu/ml
  TVC cfu/ml Day 1: <100 cfu/ml
[1]; [7]
  TVC cfu/ml Day 1: <100 cfu/ml
  TVC cfu/ml Day 4: <100 cfu/ml
  TVC cfu/ml Day 8: <100 cfu/ml
  TVC cfu/ml Day 13: <100 cfu/ml
[1]; [8]
  TVC cfu/ml Day 4: <100 cfu/ml
[1]; Table 3, urea 0.65%, calcium carbonate 75.7%, water 23.65% w/w, detection limit 100 cfu/ml
  TVC cfu/ml Day 1: <100 cfu/ml
[1]; [9]
  TVC cfu/ml Day 1: <100 cfu/ml
  TVC cfu/ml Day 4: <100 cfu/ml
[1]; [10]
  TVC cfu/ml Day 1: <100 cfu/ml
  TVC cfu/ml Day 4: <100 cfu/ml
  TVC cfu/ml Day 9: <100 cfu/ml
[2]
  formation of clumps after addition of dry urea: No clumps were formed
  viscosity after addition of dry urea: does not increase
[2]; 7 days at room temperature and 40° C.
  stability of the product: remains stable
[3]
  TVC cfu/ml Day 1: <100 cfu/ml
  TVC cfu/ml Day 4: <100 cfu/ml
  TVC cfu/ml Day 8: <100 cfu/ml
  TVC cfu/ml Day 11: <100 cfu/ml
  TVC cfu/ml Day 13: <100 cfu/ml
[4]; low urea concentrations (table 1: 0.025-0.075%)
  preservation of calcium carbonate slurries from bacterial growth: not able to preserve
[4]; urea 0.025%
  TVC cfu/ml 2nd Inoculation: >1E6 cfu/ml
  TVC cfu/ml 3rd Inoculation: >1E6 cfu/ml
  TVC cfu/ml 1st Inoculation: >1E6 cfu/ml
[4]; urea 0.05%
  TVC cfu/ml 2nd Inoculation: >1E6 cfu/ml
  TVC cfu/ml 3rd Inoculation: >1E6 cfu/ml
  TVC cfu/ml 1st Inoculation: >1E6 cfu/ml
[4]; urea 0.075%
  TVC cfu/ml 2nd Inoculation: >1E6 cfu/ml
  TVC cfu/ml 3rd Inoculation: >1E6 cfu/ml
  TVC cfu/ml 1st Inoculation: >1E6 cfu/ml
[5]
  TVC cfu/ml Day 4: <100 cfu/ml
  TVC cfu/ml Day 8: <100 cfu/ml
  TVC cfu/ml Day 11: <100 cfu/ml
  TVC cfu/ml Day 13: <100 cfu/ml
Pseudomonas putida; [6]
  TVC cfu/ml Day 1: <100 cfu/ml
  TVC cfu/ml Day 4: <100 cfu/ml
  TVC cfu/ml Day 8: 100 cfu/ml
  TVC cfu/ml Day 13: <100 cfu/ml
Pseudomonas putida; [7]
  TVC cfu/ml Day 1: <100 cfu/ml
  TVC cfu/ml Day 4: <100 cfu/ml
  TVC cfu/ml Day 8: <100 cfu/ml
  TVC cfu/ml Day 13: <100 cfu/ml
Pseudomonas putida; [8]
  TVC cfu/ml Day 1: >1E5 cfu/ml
  TVC cfu/ml Day 4: >1E5 cfu/ml
Pseudomonas putida; [10]
  TVC cfu/ml Day 1: <100 cfu/ml
  TVC cfu/ml Day 4: <100 cfu/ml
  TVC cfu/ml Day 9: <100 cfu/ml
